Measurements as given in patent publication US9738655B2, “Tetrahydroisoquinolines containing substituted azoles as factor XIa inhibitors” (BRISTOL-MYERS SQUIBB COMPANY, priority 2013, dated 2017).
Structures can show the parent of a compound that is named as a salt. Where two headings read alike, the source gives them in different places. Values belong to the compound of their own block, whether it stands above or below them.

Tests used:
[1] = target: purified human Factor XIa (Homo sapiens (Human), UniProt P03951); assay: Factor XIa enzyme inhibition assay (chromogenic substrate S-2366); conditions: read-out: Factor XIa Ki
Sequence of purified human Factor XIa (P03951 388-625): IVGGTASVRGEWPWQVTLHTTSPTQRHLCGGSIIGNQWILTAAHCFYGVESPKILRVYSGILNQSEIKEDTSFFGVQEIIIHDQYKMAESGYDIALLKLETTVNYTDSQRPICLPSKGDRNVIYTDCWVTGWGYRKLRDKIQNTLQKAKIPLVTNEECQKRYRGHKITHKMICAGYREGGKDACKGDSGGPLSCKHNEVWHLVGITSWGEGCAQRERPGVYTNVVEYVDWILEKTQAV
Sequence of purified human Factor XIa (P03951 19-387 partner): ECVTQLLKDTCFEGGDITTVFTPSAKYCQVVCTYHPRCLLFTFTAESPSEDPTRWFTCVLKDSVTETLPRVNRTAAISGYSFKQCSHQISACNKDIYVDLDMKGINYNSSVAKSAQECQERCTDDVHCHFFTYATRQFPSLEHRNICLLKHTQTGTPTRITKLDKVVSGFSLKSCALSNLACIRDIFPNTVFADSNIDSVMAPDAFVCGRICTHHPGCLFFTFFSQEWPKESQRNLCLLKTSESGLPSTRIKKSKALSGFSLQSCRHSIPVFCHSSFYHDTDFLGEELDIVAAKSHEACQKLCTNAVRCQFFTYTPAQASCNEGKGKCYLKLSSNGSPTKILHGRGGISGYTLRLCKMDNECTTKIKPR

[2] = target: purified human plasma kallikrein (Homo sapiens (Human), UniProt P03952); assay: Plasma kallikrein enzyme inhibition assay (chromogenic substrate S-2302); assay type: biochemical
Sequence of purified human plasma kallikrein (P03952 391-638): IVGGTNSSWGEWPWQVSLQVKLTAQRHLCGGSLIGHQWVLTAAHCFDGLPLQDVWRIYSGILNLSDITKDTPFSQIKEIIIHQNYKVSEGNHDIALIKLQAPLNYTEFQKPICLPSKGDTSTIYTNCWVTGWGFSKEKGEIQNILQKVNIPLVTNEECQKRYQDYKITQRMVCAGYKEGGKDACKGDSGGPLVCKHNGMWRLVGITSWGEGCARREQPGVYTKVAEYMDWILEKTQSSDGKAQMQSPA
Sequence of purified human plasma kallikrein (P03952 20-390 partner): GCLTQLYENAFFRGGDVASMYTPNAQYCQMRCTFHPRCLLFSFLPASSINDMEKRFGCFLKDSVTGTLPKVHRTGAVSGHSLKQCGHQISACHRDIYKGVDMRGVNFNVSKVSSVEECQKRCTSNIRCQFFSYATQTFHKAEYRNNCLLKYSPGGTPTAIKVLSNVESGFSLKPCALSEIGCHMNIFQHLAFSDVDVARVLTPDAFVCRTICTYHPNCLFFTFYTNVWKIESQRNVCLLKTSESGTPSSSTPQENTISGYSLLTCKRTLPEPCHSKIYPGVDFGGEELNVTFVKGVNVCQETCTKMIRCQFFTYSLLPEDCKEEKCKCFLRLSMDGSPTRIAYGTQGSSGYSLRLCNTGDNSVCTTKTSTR

[3] = measured at 25° C. (no asterisk)

SMILES: CN1CCN(c2cccc3c2CCN(C(=O)C2CC(c4cccc(Cl)c4F)=NO2)C3C(=O)Nc2ccc(C(=O)O)cc2)CC1=O (single isomer, unassigned) [Example 283, 4-(2-(3-(3-chloro-2-fluorophenyl)-4,5-dihydroisoxazole-5-carbonyl)-5-(4-methyl-3-oxopiperazin-1-yl)-1,2,3,4-tetrahydroisoquinoline-1-carboxamido)benzoic acid, TFA salt]
Ki ([1]; measured at 25° C., TFA salt): 8.27 nM | Ki ([2]; measured at 25° C. (no asterisk), TFA salt): 75.3 nM

SMILES: O=C(NC12CCC(C(=O)O)(CC1)CC2)[C@@H]1c2cccc(-c3cncnc3)c2CCN1C(=O)c1cn(-c2cccc(Cl)c2F)nn1 (single isomer, unassigned; enantiomer a) [Example 144, 4-(2-{[1-(3-Chloro-2-fluorophenyl)-1H-1,2,3-triazol-4-yl]carbonyl}-5-(pyrimidin-5-yl)-1,2,3,4-tetrahydroisoquinoline-1-amido)bicyclo[2.2.2]octane-1-carboxylic acid, 1 TFA (enantiomer A)]
Ki ([1]; measured at 25° C.): 3030 nM | Ki ([2]; measured at 37° C. (*)): 11600 nM

SMILES: O=C(NC12CCC(C(=O)O)(CC1)CC2)[C@H]1c2cccc(-c3cncnc3)c2CCN1C(=O)c1cn(-c2cccc(Cl)c2F)nn1 (single isomer, unassigned; enantiomer b) [Example 145, 4-(2-{[1-(3-Chloro-2-fluorophenyl)-1H-1,2,3-triazol-4-yl]carbonyl}-5-(pyrimidin-5-yl)-1,2,3,4-tetrahydroisoquinoline-1-amido)bicyclo[2.2.2]octane-1-carboxylic acid, 1 TFA (enantiomer B)]
Ki ([1]; measured at 25° C.): 7.87 nM | Ki ([2]; measured at 37° C. (*)): 252 nM

SMILES: O=C(Nc1ccc2ncccc2c1)[C@H]1c2cccc(-c3cncnc3)c2CCN1C(=O)c1cn(-c2cccc(Cl)c2F)nn1 (stereo in doubt) [Example 125, 2-(1-(3-Chloro-2-fluorophenyl)-1H-1,2,3-triazole-4-carbonyl)-5-(pyrimidin-5-yl)-N-(quinolin-6-yl)-1,2,3,4-tetrahydroisoquinoline-1-carboxamide, TFA salt]
Ki ([1]; measured at 25° C.): 9.62 nM | Ki ([2]; measured at 37° C. (*)): 54.1 nM

SMILES: O=C(O)c1ccc(NC(=O)C2c3ccccc3CCN2C(=O)c2cn(-c3cccc(Cl)c3F)nn2)cc1 (centres unmarked) [Example 1, 4-(2-(1-(3-Chloro-2-fluorophenyl)-1H-1,2,3-triazole-4-carbonyl)-1,2,3,4-tetrahydroisoquinoline-1-carboxamido)benzoic acid]
Ki ([1]; measured at 25° C.): 13.5 nM | Ki [2, 3]: 20.8 nM

SMILES: CN(C)CCNC(=O)c1ccc(-c2cccc3c2CCN(C(=O)c2cn(-c4cccc(Cl)c4F)nn2)C3C(=O)Nc2ccc(C(=O)O)cc2)cc1 (centres unmarked) [Example 6, 4-(2-(1-(3-Chloro-2-fluorophenyl)-1H-1,2,3-triazole-4-carbonyl)-5-(4-((2-(dimethylamino)ethyl)carbamoyl)phenyl)-1,2,3,4-tetrahydroisoquinoline-1-carboxamido)benzoic acid]
Ki ([1]; measured at 25° C.): < 5 nM | Ki [2, 3]: 2.4 nM

SMILES: Cc1c(C(=O)N2CCc3c(-c4ccc(C(=O)NCCN(C)C)cc4)cccc3C2C(=O)Nc2ccc(C(=O)O)cc2)nnn1-c1cccc(Cl)c1F (centres unmarked) [Example 7, 4-(2-(1-(3-Chloro-2-fluorophenyl)-5-methyl-1H-1,2,3-triazole-4-carbonyl)-5-(4-((2-(dimethylamino)ethyl)carbamoyl)phenyl)-1,2,3,4-tetrahydroisoquinoline-1-carboxamido)benzoic acid, TFA salt]
Ki ([1]; measured at 25° C.): < 5 nM | Ki [2, 3]: 29.9 nM

SMILES: CN(C)CCNC(=O)c1ccc(-c2cccc3c2CCN(C(=O)c2cnn(-c4cccc(Cl)c4F)c2)C3C(=O)Nc2ccc(C(=O)O)cc2)cc1 (centres unmarked) [Example 8, 4-(2-(1-(3-Chloro-2-fluorophenyl)-1H-pyrazole-4-carbonyl)-5-(4-((2-(dimethylamino)ethyl)carbamoyl)phenyl)-1,2,3,4-tetrahydroisoquinoline-1-carboxamido)benzoic acid, TFA salt]
Ki ([1]; measured at 25° C.): < 5 nM | Ki [2, 3]: 3.37 nM

SMILES: CN(C)CCNC(=O)c1ccc(-c2cccc3c2CCN(C(=O)c2cn(-c4cccc(Cl)c4F)nn2)[C@@H]3C(=O)Nc2ccc(C(=O)O)cc2)cc1 [Example 10, (S)-4-(2-(1-(3-Chloro-2-fluorophenyl)-1H-1,2,3-triazole-4-carbonyl)-5-(4-((2-(dimethylamino)ethyl)carbamoyl)phenyl)-1,2,3,4-tetrahydroisoquinoline-1-carboxamido)benzoic acid, TFA salt]
Ki ([1]; measured at 25° C.): < 5 nM | Ki [2, 3]: 1.08 nM

SMILES: CN(C)CCNC(=O)c1ccc(-c2cccc3c2CCN(C(=O)c2cn(-c4cccc(Cl)c4F)nn2)[C@H]3C(=O)Nc2ccc(C(=O)O)cc2)cc1 [Example 11, (R)-4-(2-(1-(3-Chloro-2-fluorophenyl)-1H-1,2,3-triazole-4-carbonyl)-5-(4-((2-(dimethylamino)ethyl)carbamoyl)phenyl)-1,2,3,4-tetrahydroisoquinoline-1-carboxamido)benzoic acid TFA salt]
Ki [1]: 165 nM | Ki [2, 3]: 1060 nM

Further lines, results first:

Ki ([1]; measured at 25° C.): 6.44 nM | Ki [2, 3]: 13.1 nM
SMILES: O=C(O)c1ccc(NC(=O)[C@@H]2c3ccccc3CCN2C(=O)c2cn(-c3cccc(Cl)c3F)nn2)cc1 [Example 3, (S)-4-(2-(1-(3-Chloro-2-fluorophenyl)-1H-1,2,3-triazole-4-carbonyl)-1,2,3,4-tetrahydroisoquinoline-1-carboxamido)benzoic acid]

Ki ([1]; measured at 25° C.): < 5 nM | Ki [2, 3]: 9.88 nM
SMILES: O=C(O)c1ccc(NC(=O)C2c3cccc(-c4cncnc4)c3CCN2C(=O)c2cn(-c3cccc(Cl)c3F)nn2)cc1 (centres unmarked) [Example 12, 4-(2-(1-(3-Chloro-2-fluorophenyl)-1H-1,2,3-triazole-4-carbonyl)-5-(pyrimidin-5-yl)-1,2,3,4-tetrahydroisoquinoline-1-carboxamido)benzoic acid]

Ki ([1]; measured at 25° C.): 11.9 nM | Ki [2, 3]: 427 nM
SMILES: O=C(O)c1ccc(NC(=O)[C@H]2c3cccc(-c4cncnc4)c3CCN2C(=O)c2cn(-c3cccc(Cl)c3F)nn2)cc1 [Example 13, (R)-4-(2-(1-(3-Chloro-2-fluorophenyl)-1H-1,2,3-triazole-4-carbonyl)-5-(pyrimidin-5-yl)-1,2,3,4-tetrahydroisoquinoline-1-carboxamido)benzoic acid]

Ki ([1]; measured at 25° C.): < 5 nM | Ki [2, 3]: 6.27 nM
SMILES: O=C(O)c1ccc(NC(=O)[C@@H]2c3cccc(-c4cncnc4)c3CCN2C(=O)c2cn(-c3cccc(Cl)c3F)nn2)cc1 [Example 14, (S)-4-(2-(1-(3-Chloro-2-fluorophenyl)-1H-1,2,3-triazole-4-carbonyl)-5-(pyrimidin-5-yl)-1,2,3,4-tetrahydroisoquinoline-1-carboxamido)benzoic acid]

Ki ([1]; measured at 25° C.): 9.12 nM | Ki [2, 3]: 219 nM
SMILES: N#Cc1ccc(-c2cccc3c2CCN(C(=O)c2cn(-c4cccc(Cl)c4F)nn2)[C@H]3C(=O)Nc2ccc(C(=O)O)cc2)cn1 [Example 15, (R)-4-(2-(1-(3-Chloro-2-fluorophenyl)-1H-1,2,3-triazole-4-carbonyl)-5-(6-cyanopyridin-3-yl)-1,2,3,4-tetrahydroisoquinoline-1-carboxamido)benzoic acid, TFA salt]

Ki ([1]; measured at 25° C.): < 5 nM | Ki [2, 3]: 4.55 nM
SMILES: N#Cc1ccc(-c2cccc3c2CCN(C(=O)c2cn(-c4cccc(Cl)c4F)nn2)[C@@H]3C(=O)Nc2ccc(C(=O)O)cc2)cn1 [Example 16, (S)-4-(2-(1-(3-Chloro-2-fluorophenyl)-1H-1,2,3-triazole-4-carbonyl)-5-(6-cyanopyridin-3-yl)-1,2,3,4-tetrahydroisoquinoline-1-carboxamido)benzoic acid, TFA salt]
